{"source": "patent US20110110940A1", "about": "“Methods for Enhancing the Efficacy of Vascular Disrupting Agents” (OXIGENE, INC., priority 2008, published 2011)", "system": "GFP+ bone marrow cells in the viable tumor rim of LLC tumors", "test": "Homing/invasion of GFP+ bone marrow cells (CEPs) to the viable tumor rim and incorporation into CD31+ tumor vasculature, confocal microscopy of LLC tumor sections", "assay_type": "in vivo, mice", "conditions": "3 days after treatment", "description": "Integrin ∘4β1 (VLA4) promotes the homing of circulating cells to the α4β1 ligand binding (VCAM) expressed at the tumor site (Jin et al. 2006. J Clin Invest 116:652-662). […] We determined whether α4β1 integrin contributes to CEP and possibly other types of bone-marrow pro-angiogenic cell invasion and homing to the viable tumor rim after VDA treatment. To this end, green fluorescent protein (GFP)positive bone marrow cells obtained from syngeneic UBI/GFP/BL6 donor mice (The Jackson Laboratory, Bar Harbor, Me.) were transplanted into lethally irradiated C57Bl/6 recipient mice (as described in Theise, et al. 2000. Hepatology 31:235-240). Three weeks later, mice were subcutaneously (s.c.) implanted with 0.5×10^6 Lewis Lung Carcinoma (LLC) cells (ATCC, Manassas, Va.).\nWhen tumors reached 500 mm^3, mice were treated with an integrin α4β1 specific blocking antibody (Jin 2006), CA1P, or a combination of the two agents. After 3 days, tumor volumes were measured, mice were sacrificed and tumors were removed for the evaluation of necrosis (FIG. 1A) and incorporation of bone marrow cells to the tumor vasculature (FIG. 1B). […] FIG. 1C provides tumor volumes measured three days after treatment and normalized to untreated control tumors. *: 0.05>p>0.01; **: p<0.01. Tumor size was assessed with Vernier calipers by using the formula width^2×length×0.5. […]"}
{"smiles": "COc1cc(/C=C\\c2ccc(OC)c(OP(=O)(O)O)c2OP(=O)(O)O)cc(OC)c1OC", "note": "[CA1P, combretastatin A-1 diphosphate]", "values": [{"measurement": "invasion/homing of GFP+ cells (bone marrow cells) in the viable tumor rim (FIG. 1B)", "value": "massive invasion of GFP^+ cells"}, {"measurement": "incorporation of GFP+ cells into blood vessels (colocalization of GFP+ and CD31+ cells, FIG. 1B)", "setting": "CD31 staining", "value": "some of which were found to incorporate into blood vessels"}]}
